The values below come from PMC10363080, “Modulatory Effect of Pyrus pyrifolia Fruit and its Phenolics on Key Enzymes against Metabolic Syndrome: Bioassay-Guided Approach, HPLC Analysis, and In Silico Study” (Plant Foods for Human Nutrition (Dordrecht, Netherlands), 2023).

Test system in one test: not listed separately
As to the kind of experiment: Ferric reducing antioxidant power (FRAP) assay. On the set-up: FRAP AA (%) antioxidant activity percentage: concentration or dose not given beside the values. The following applies: Trolox equivalent per gram of sample; mean ± SD, n=3. As to the method: (§1) all of analytical grade. An electrothermal 9100 (UK) was used for the determination of melting points (uncorrected). A Jenway model 6800 spectrophotometer was utilized for recording UV spectra. A Tecan, microplate reader, ((Infinite F50, Switzerland)) was used to measure the absorbances. A Bruker NMR system was used for 1H-NMR (400 MHz) and 13C-NMR (100 MHz).
(§2) The NMR spectra were determined in CD3OH and DMSO-d6. Chemical shifts are given in δ (ppm) relative to the internal standard TMS. Phenolic acids and flavonoids used in HPLC analysis as well as all other reagents for biological investigations were obtained from Sigma Chemical Company […]
(§3) Determination of the antioxidant activity
(§4) 2,2`-Azino-bis(3-ethylbenzothiazoline-6-sulfonic acid) (ABTS), ferric reducing antioxidant power (FRAP), and oxygen radical absorbance capacity (ORAC) assays were performed according to the previously published procedures. Ascorbic acid was used as a reference antioxidant […]
drug. […]
`O=c1c(O[C@@H]2O[C@H](CO)[C@@H](O)[C@H](O)[C@H]2O)c(-c2ccc(O)c(O)c2)oc2cc(O)cc(O)c12` [P2, isoquercitrin]: the FRAP antioxidant activity was 137.27±0.53 μM TE/g.
On the same count and under the same terms, under `COc1cc(-c2oc3cc(O)cc(O)c3c(=O)c2O[C@@H]2O[C@H](CO)[C@@H](O)[C@H](O)[C@H]2O)ccc1O` [P3, isorhamnetin-3-O-β-D-glucopyranoside] stands 125.08±0.72 μM TE/g.
Regarding `C[C@@H]1O[C@@H](OC[C@H]2O[C@@H](Oc3c(-c4ccc(O)c(O)c4)oc4cc(O)cc(O)c4c3=O)[C@H](O)[C@@H](O)[C@@H]2O)[C@H](O)[C@H](O)[C@H]1O` [P1, rutin], the FRAP antioxidant activity was 99.28 ±0.98 μM TE/g.
As for `O=C(O)/C=C/c1ccccc1` [P6, cinnamic acid], the FRAP antioxidant activity is on record as 141.26±0.91 μM TE/g.

Still in this test, the particulars now being: Trolox equivalent per gram of sample; mean ± SD, n=3; listed as Cinnamic acid (P6).
For the compound `O=C(O)/C=C/c1ccccc1` [P6, cinnamic acid], the FRAP antioxidant activity is 141.26 ± 0.91 μM TE/g.

Still in this test, the particulars now being: compared to ascorbic acid (=100).
As for `O=c1c(O[C@@H]2O[C@H](CO)[C@@H](O)[C@H](O)[C@H]2O)c(-c2ccc(O)c(O)c2)oc2cc(O)cc(O)c12` [P2, isoquercitrin], the “FRAP AA (%) antioxidant activity percentage” value was determined as 88.44%.
Take `COc1cc(-c2oc3cc(O)cc(O)c3c(=O)c2O[C@@H]2O[C@H](CO)[C@@H](O)[C@H](O)[C@H]2O)ccc1O` [P3, isorhamnetin-3-O-β-D-glucopyranoside]: the “FRAP AA (%) antioxidant activity percentage” value amounted to 80.58%.
For `C[C@@H]1O[C@@H](OC[C@H]2O[C@@H](Oc3c(-c4ccc(O)c(O)c4)oc4cc(O)cc(O)c4c3=O)[C@H](O)[C@@H](O)[C@@H]2O)[C@H](O)[C@H](O)[C@H]1O` [P1, rutin], the “FRAP AA (%) antioxidant activity percentage” value worked out at 63.96%.
On the same count and under the same terms, the figure for `O=C(O)/C=C/c1ccccc1` [P6, cinnamic acid] is 91.01%.

Test system in the next test: not listed separately
The test can be described thus: Oxygen radical absorbance capacity (ORAC) assay. The following applies: Trolox equivalent per gram of sample; mean ± SD, n=3. Here is the method:
as §1, §2, §3, §4
drug. […]
As for `O=c1c(O[C@@H]2O[C@H](CO)[C@@H](O)[C@H](O)[C@H]2O)c(-c2ccc(O)c(O)c2)oc2cc(O)cc(O)c12` [P2, isoquercitrin], the ORAC antioxidant activity amounted to 346.28±0.29 μM TE/g.
For `COc1cc(-c2oc3cc(O)cc(O)c3c(=O)c2O[C@@H]2O[C@H](CO)[C@@H](O)[C@H](O)[C@H]2O)ccc1O` [P3, isorhamnetin-3-O-β-D-glucopyranoside], the ORAC antioxidant activity is listed as 320.78±0.55 μM TE/g.
Same read-out and setting: the figure for `C[C@@H]1O[C@@H](OC[C@H]2O[C@@H](Oc3c(-c4ccc(O)c(O)c4)oc4cc(O)cc(O)c4c3=O)[C@H](O)[C@@H](O)[C@@H]2O)[C@H](O)[C@H](O)[C@H]1O` [P1, rutin] is 266.30±0.75 μM TE/g.
With `O=C(O)/C=C/c1ccccc1` [P6, cinnamic acid], the ORAC antioxidant activity is 362.55±1.20 μM TE/g.

Staying with this test, now noted: Trolox equivalent per gram of sample; mean ± SD, n=3; listed as Cinnamic acid (P6).
For `O=C(O)/C=C/c1ccccc1` [P6, cinnamic acid], the ORAC antioxidant activity is 362.55 ± 1.20 μM TE/g.

Still in this test, the particulars now being: compared to ascorbic acid (=100).
As for `O=c1c(O[C@@H]2O[C@H](CO)[C@@H](O)[C@H](O)[C@H]2O)c(-c2ccc(O)c(O)c2)oc2cc(O)cc(O)c12` [P2, isoquercitrin], the “ORAC AA (%) antioxidant activity percentage” value worked out at 88.74%.
As for `COc1cc(-c2oc3cc(O)cc(O)c3c(=O)c2O[C@@H]2O[C@H](CO)[C@@H](O)[C@H](O)[C@H]2O)ccc1O` [P3, isorhamnetin-3-O-β-D-glucopyranoside], the “ORAC AA (%) antioxidant activity percentage” value is listed as 82.21%.
Consider `C[C@@H]1O[C@@H](OC[C@H]2O[C@@H](Oc3c(-c4ccc(O)c(O)c4)oc4cc(O)cc(O)c4c3=O)[C@H](O)[C@@H](O)[C@@H]2O)[C@H](O)[C@H](O)[C@H]1O` [P1, rutin], for which the “ORAC AA (%) antioxidant activity percentage” value was found to be 68.25%.
On the same count and under the same terms, the figure for `O=C(O)/C=C/c1ccccc1` [P6, cinnamic acid] is 92.91%.

The target of another test is T1, pancreatic α-amylase (Sus scrofa, UniProt P00690).
T1 construct: pancreatic α-amylase (ex -porcine pancreas, EC 3.2.1.1, Sigma); purchased Sigma; host or cells: porcine pancreas
T1 sequence (P00690 16-511): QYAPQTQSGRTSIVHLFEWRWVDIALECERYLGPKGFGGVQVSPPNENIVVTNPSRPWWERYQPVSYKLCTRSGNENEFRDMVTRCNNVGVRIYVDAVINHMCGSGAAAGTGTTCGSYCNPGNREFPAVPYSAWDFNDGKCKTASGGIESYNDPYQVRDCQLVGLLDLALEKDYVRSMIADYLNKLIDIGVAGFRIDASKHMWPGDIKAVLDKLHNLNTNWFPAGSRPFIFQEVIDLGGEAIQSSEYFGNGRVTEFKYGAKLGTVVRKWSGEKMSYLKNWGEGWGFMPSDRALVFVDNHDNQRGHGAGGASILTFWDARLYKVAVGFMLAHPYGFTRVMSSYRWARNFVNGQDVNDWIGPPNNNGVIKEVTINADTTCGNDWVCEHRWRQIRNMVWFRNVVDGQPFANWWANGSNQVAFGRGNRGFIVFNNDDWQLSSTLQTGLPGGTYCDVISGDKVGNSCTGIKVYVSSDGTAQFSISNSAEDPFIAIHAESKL
As to the kind of experiment: α-Amylase inhibitory activity (starch substrate). Conditions: isolated compounds, Table S7; read-out: Inhibition (IC50) α-Amylase. It counts as biochemical, porcine. As to the method:
(§5) Phenolic acids and flavonoids used in HPLC analysis as well as all other reagents for biological investigations were obtained from Sigma Chemical Company […]
(§6) Inhibitory activity against key enzymes related to metabolic syndrome (MS) All assays were performed in 96-well plates. Stock solutions of the extract (100 mg/mL), fractions (100 mg/mL), and isolated compounds (1000 µM) were prepared. Tested samples that exceeded […]
(§7) inhibitory concentration (IC50). The percentage of enzyme inhibition was calculated according to […]
(§8) % Inhibition = (A−B) − (C−D) x 100 […]
α-Amylase inhibitory activity
α-Amylase inhibition assays were performed according to a previously described method. The tested samples we re incubated with pancreatic α-amylase (ex -porcine pancreas, EC 3.2.1.1, Sigma) followed by the addition of starch and iodine -potassium iodide solution for colo r development.
Starch [50 μL, 1% phosphate-buffered saline (PBS)] was mixed as substrate with 13 U mL−1 pancreatic α-amylase prepared in PBS, and 50 μL of test solution. A blank was performed using PBS. To initiate the reaction, the enzyme was added to the assay solution after being pre-incubated separately at 37 °C in a water bath for 10 min. Dinitrosalicylic acid reagent (1 mL) was added and […]
heated at 85 °C for 15 min. Then, it was cooled to room temperature and distilled water (1 mL) […]
was added. […] The absorbance was recorded at 540 nm.
Pancreatic lipase inhibitory activity […]
One may read the IC50 as the point on the concentration scale where inhibition reaches its midpoint. As for `O=c1c(O[C@@H]2O[C@H](CO)[C@@H](O)[C@H](O)[C@H]2O)c(-c2ccc(O)c(O)c2)oc2cc(O)cc(O)c12` [P2, isoquercitrin], the IC50 came out at 1.54 ± 0.18 µM.
For the compound `COc1cc(-c2oc3cc(O)cc(O)c3c(=O)c2O[C@@H]2O[C@H](CO)[C@@H](O)[C@H](O)[C@H]2O)ccc1O` [P3, isorhamnetin-3-O-β-D-glucopyranoside], the IC50 came to 2.31 ± 0.87 µM.
Turning to `C[C@@H]1O[C@@H](OC[C@H]2O[C@@H](Oc3c(-c4ccc(O)c(O)c4)oc4cc(O)cc(O)c4c3=O)[C@H](O)[C@@H](O)[C@@H]2O)[C@H](O)[C@H](O)[C@H]1O` [P1, rutin], the IC50 worked out at 3.54 ± 0.21 µM.
In the case of `O=C(O)/C=C/c1ccccc1` [P6, cinnamic acid], the IC50 turned out to be 1.02 ± 0.63 µM.
Same read-out and setting: the figure for `O=C(/C=C/c1ccc(O)c(O)c1)O[C@@H]1C[C@](O)(C(=O)O)C[C@@H](O)[C@H]1O` [P4, chlorogenic acid] is 3.78 ± 0.19 µM.

Another test deals with T2, Recombinant renin (Homo sapiens, UniProt P00797).
T2 construct: purchased BPS Bioscince
T2 sequence (P00797 67-406): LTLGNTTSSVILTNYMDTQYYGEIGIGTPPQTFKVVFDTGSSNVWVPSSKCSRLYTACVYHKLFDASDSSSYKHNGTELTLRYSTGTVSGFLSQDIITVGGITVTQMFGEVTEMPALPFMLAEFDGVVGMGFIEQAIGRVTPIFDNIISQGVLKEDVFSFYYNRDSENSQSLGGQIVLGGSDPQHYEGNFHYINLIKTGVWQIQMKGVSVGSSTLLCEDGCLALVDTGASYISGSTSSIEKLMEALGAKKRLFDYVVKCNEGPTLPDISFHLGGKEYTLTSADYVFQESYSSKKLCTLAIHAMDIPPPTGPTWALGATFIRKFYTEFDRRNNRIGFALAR
As to the kind of experiment: Renin inhibitory activity (renin-inhibitor screening assay kit). The following applies: isolated compounds, Table S7; read-out: Inhibition (IC50) Renin (converted). It is filed as biochemical. Here is the method: all of analytical grade. […]
as §5, §6, §7, §8
Renin inhibitory activity
The renin inhibitory activity was examined according to a previously described method using renin-inhibitor screening assay kit (BPS Bioscince, San Diego, CA, USA) and quinapril as a reference drug. Recombinant renin enzyme (50 μL) was dissolved in 50-mM Tris-HCl buffer (pH 8.0) and 100-mM NaCl (assay buffer) and stored at –80°C for further analysis. Twenty μL of renin substrate (A500 μM in DMSO), 150 μL of assay buffer, and 10 μL of each sample were used to prepare test solutions (10mg/ml in methanol). The blank samples were made using 10 μL of the sample, 20 μL of the substrate, and 160 μL of assay buffer. The positive control samples were created using 10 μL of methanol, 20 μL of substrate, and 150 μL of assay buffer. The positive control and tested samples were combined with 10 μL of the renin solution for the assay in order to catalyze the reaction. After that, the reaction mixture was incubated for 45 minutes at 37 °C.
The fluorescence generated at the 340 nm excitation and 490 nm emission wavelengths was measured using a microplate reader.
Xanthine oxidase (XO) inhibitory activity
Xanthine oxidase (XO) inhibitory potential was carried out according to a previous designed procedure using xanthine oxidase (XO, EC 1.17.3.2; Biovision, USA). Allopurinol was applied as a reference drug. Immediately prior to use, a mixture was made up of 50 μL of sample solution, 35 μL of phosphate buffer (70 mM, pH = 7.5), and 30 μL of new enzyme solution (0.01 units/mL in the same buffer). The reaction was started by adding 60 μL of the substrate solution (150 μM xanthine in the same buffer) following a pre-incubation at 25 °C for 15 minutes. After that, the mixture was incubated at 25 °C for 30 min. After adding 25 μL of 1 M HCl to terminate the reaction, the absorbance was measured at 290 nm with a microplate reader as previously
As for `O=c1c(O[C@@H]2O[C@H](CO)[C@@H](O)[C@H](O)[C@H]2O)c(-c2ccc(O)c(O)c2)oc2cc(O)cc(O)c12` [P2, isoquercitrin], the IC50 was 24.8 ± 1.3 µM.
Same read-out and setting: under `COc1cc(-c2oc3cc(O)cc(O)c3c(=O)c2O[C@@H]2O[C@H](CO)[C@@H](O)[C@H](O)[C@H]2O)ccc1O` [P3, isorhamnetin-3-O-β-D-glucopyranoside] stands 34.8 ± 0.79 µM; under `C[C@@H]1O[C@@H](OC[C@H]2O[C@@H](Oc3c(-c4ccc(O)c(O)c4)oc4cc(O)cc(O)c4c3=O)[C@H](O)[C@@H](O)[C@@H]2O)[C@H](O)[C@H](O)[C@H]1O` [P1, rutin], 40.8 ± 1.3 µM; under `O=C(O)/C=C/c1ccccc1` [P6, cinnamic acid], 20.7 ± 0.8 µM.
On to `O=C(/C=C/c1ccc(O)c(O)c1)O[C@@H]1C[C@](O)(C(=O)O)C[C@@H](O)[C@H]1O` [P4, chlorogenic acid], for which the IC50 is 47.8 ± 0.25 µM.
